The results in this text go back to Sander's compilation of Henry's law constants (doi:10.1016/j.watres.2017.04.074).

A short description of the data set: Henry solubility constant Hcp at 298.15 K (mol/(m3 Pa)). Conditions: reference: Chao et al. (2017).

For `COP(=O)(OC)C(O)C(Cl)(Cl)Cl` (stereo unspecified), the “Henry solubility constant Hcp” value came out at 55.

Regarding `Clc1ccc(C(c2ccc(Cl)cc2)C(Cl)Cl)cc1` [1,1-dichloro-2,2-bis-(4-chlorophenyl)-ethane], the “Henry solubility constant Hcp” value came out at 0.76.

Turning to `Nc1ccccc1Cl` [1-amino-2-chlorobenzene], the “Henry solubility constant Hcp” value was found to be 0.78. The figure for `Nc1cccc(Cl)c1` [1-amino-3-chlorobenzene] is 4.7. `Cc1ccccc1O` [1-hydroxy-2-methylbenzene]: the “Henry solubility constant Hcp” value was 6.5. Take `O=[N+]([O-])c1cccc2ccccc12` [1-nitronaphthalene]: the “Henry solubility constant Hcp” value is 4.6. On to `O=[N+]([O-])c1ccc(O)c([N+](=O)[O-])c1` [2,4-dinitrophenol], for which the “Henry solubility constant Hcp” value was found to be 970. With `CC(C)CO` [2-methyl-1-propanol], the “Henry solubility constant Hcp” value amounted to 1.2.

In the case of `Cc1ccccc1N` [2-methylbenzenamine], the “Henry solubility constant Hcp” value is 3. Consider `O=[N+]([O-])c1ccccc1O` [2-nitrophenol], for which the “Henry solubility constant Hcp” value was 9.9. The figure for `O=[N+]([O-])c1cccc(Cl)c1` [3-chloronitrobenzene] is 1.4; for `Cc1cccc(N)c1` [3-methylbenzenamine] it is 3.2; for `CC1CCCC(O)C1` (stereo unspecified) [3-methylcyclohexanol] it is 2.9. On to `Cc1cccc([N+](=O)[O-])c1` [3-nitrotoluene], for which the “Henry solubility constant Hcp” value worked out at 1.3. Regarding `O=[N+]([O-])c1ccc(Cl)cc1` [4-chloronitrobenzene], the “Henry solubility constant Hcp” value worked out at 1.4. The figure for `O=[N+]([O-])c1ccc(O)cc1` [4-nitrophenol] is 14; for `OCc1ccccc1` [(hydroxymethyl)-benzene] it is 17; for `ClC1=C(Cl)[C@]2(Cl)[C@H]3[C@H]([C@@H]4C=C[C@H]3C4)[C@@]1(Cl)C2(Cl)Cl` [aldrin] it is 0.26. For the molecule `CCNc1nc(NC(C)C)nc(SC)n1` [ametryn], the “Henry solubility constant Hcp” value amounted to 21. The figure for `Nc1ccccc1` [aminobenzene] is 4.4; for `CNC(=O)Oc1cccc2c1OC(C)(C)C2` [carbofuran] it is 24.

On to `ClC1=C(Cl)[C@]2(Cl)[C@@H]3[C@@H]4C[C@@H]([C@H]5O[C@@H]45)[C@@H]3[C@@]1(Cl)C2(Cl)Cl` [dieldrin], for which the “Henry solubility constant Hcp” value was 0.65.

As to `COC(=O)c1ccccc1C(=O)OC` [dimethyl phthalate], the “Henry solubility constant Hcp” value came out at 23.

Take `CN(C)C(=O)Nc1ccc(Cl)c(Cl)c1` [diuron]: the “Henry solubility constant Hcp” value was 35. The figure for `ClC1=C(Cl)[C@]2(Cl)[C@@H]3[C@H]4C[C@H]([C@@H]5O[C@H]45)[C@@H]3[C@@]1(Cl)C2(Cl)Cl` [endrin] is 1.5; for `ClC1=C(Cl)C2(Cl)C3C4OC4C(Cl)C3C1(Cl)C2(Cl)Cl` (stereo unspecified) [heptachlorepoxide] it is 0.96. As to `CCOC(=O)CC(SP(=S)(OC)OC)C(=O)OCC` (stereo unspecified) [malathion], the “Henry solubility constant Hcp” value worked out at 15. As to `CNC(=O)ON=C(C)SC` [methomyl], the “Henry solubility constant Hcp” value amounted to 200. The figure for `COP(=S)(OC)Oc1ccc([N+](=O)[O-])cc1` [methylparathion] is 17; for `O=[N+]([O-])c1ccccc1` [nitrobenzene] it is 0.67.

Take `ClC1C(Cl)C(Cl)C(Cl)C(Cl)C1Cl` (stereo unspecified) [γ-1,2,3,4,5,6-hexachlorocyclohexane]: the “Henry solubility constant Hcp” value worked out at 3.1.
